Assay [1] concerns the target Cyclopropane-fatty-acyl-phospholipid synthase (Escherichia coli) (UniProt P0A9H7). The experiment in a line: Inhibition constant against Escherichia coli cyclopropane fatty acid synthase.
Assay [2] shares this target. Described as above. This is another data set of the same source.

The results in this text go back to BindingDB's records for doi:10.1016/j.bmcl.2004.01.051 (Pierre and Marie Curie University, 2004).

Cyclopropane-fatty-acyl-phospholipid synthase (Escherichia coli), sequence (P0A9H7 whole entry, looked up): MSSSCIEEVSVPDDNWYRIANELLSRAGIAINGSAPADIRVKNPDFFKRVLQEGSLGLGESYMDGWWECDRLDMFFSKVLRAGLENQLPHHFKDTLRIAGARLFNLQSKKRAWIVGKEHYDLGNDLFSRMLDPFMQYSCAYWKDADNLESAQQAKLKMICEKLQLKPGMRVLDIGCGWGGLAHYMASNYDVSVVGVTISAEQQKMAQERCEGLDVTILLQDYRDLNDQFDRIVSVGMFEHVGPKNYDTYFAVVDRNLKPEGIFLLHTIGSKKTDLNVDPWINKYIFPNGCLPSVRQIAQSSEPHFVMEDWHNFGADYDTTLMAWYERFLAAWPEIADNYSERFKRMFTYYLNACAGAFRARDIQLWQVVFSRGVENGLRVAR

As for `C[S+](C)C[C@H]1O[C@@H](n2cnc3c(N)ncnc32)[C@H](O)[C@@H]1O`, the Ki in assay [1] amounted to 2500 µM. This counts as millimolar.

For `Nc1ncnc2c1ncn2[C@@H]1O[C@H](C[S+]([O-])CC[C@H](N)C(=O)O)[C@@H](O)[C@H]1O` (stereo partly drawn) [2-Amino-4-[(2S,3S,4R,5R)-5-(6-amino-purin-9-yl)-3,4-dihydroxy-tetrahydro-furan-2-ylmethanesulfinyl]-butyric acid], the Ki was 50 µM in assay [1] and 30 µM in assay [2].

In turn, `Nc1ncnc2c1ncn2[C@@H]1O[C@H](CS(=O)(=O)CC[C@H](N)C(=O)O)[C@@H](O)[C@H]1O` [2-Amino-4-[(2S,3S,4R,5R)-5-(6-amino-purin-9-yl)-3,4-dihydroxy-tetrahydro-furan-2-ylmethanesulfonyl]-butyric acid] had a Ki in assay [1] of 100 µM. Consider `Nc1ncnc2c1ncn2[C@@H]1O[C@H](CSCCC(N)C(=O)O)[C@@H](O)[C@H]1O` (stereo partly drawn) [2-Amino-4-[(2S,3S,4R,5R)-5-(6-amino-purin-9-yl)-3,4-dihydroxy-tetrahydro-furan-2-ylmethylsulfanyl]-butyric acid], for which the affinity in assay [1], expressed as Ki, was 30 µM. For `C[S+]([O-])C[C@H]1O[C@@H](n2cnc3c(N)ncnc32)[C@H](O)[C@@H]1O` (stereo partly drawn) [(2R,3R,4S,5S)-2-(6-Amino-purin-9-yl)-5-methanesulfinylmethyl-tetrahydro-furan-3,4-diol], in assay [1], the Ki was determined as 500 µM. The same measure, in the same setting: under `CS(=O)(=O)C[C@H]1O[C@@H](n2cnc3c(N)ncnc32)[C@H](O)[C@@H]1O` [(2R,3R,4S,5S)-2-(6-Amino-purin-9-yl)-5-methanesulfonylmethyl-tetrahydro-furan-3,4-diol] stands 220 µM. Still for that read-out and setting: under `CSC[C@H]1O[C@@H](n2cnc3c(N)ncnc32)[C@H](O)[C@@H]1O` [(2R,3R,4S,5S)-2-(6-aminopurin-9-yl)-5-(methylsulfanylmethyl)oxolane-3,4-diol] stands 1500 µM. In turn, `Nc1ncnc2c1ncn2[C@@H]1O[C@H](CSCC[C@H](N)C(=O)O)[C@@H](O)[C@H]1O` [AdoHcy] came in with a Ki in assay [1] of 150 µM.

In general, Ki refers to the dissociation constant of the complex between target and ligand, obtained from inhibition or displacement. Higher therefore signals a looser hold on the target.
